{"source": "patent US20260184689A1", "about": "“PIPERIDINE-SUBSTITUTED BENZOIC ACID COMPOUND, AND PHARMACEUTICAL COMPOSITION AND USE THEREOF” (SHANGHAI YISHENG BIOPHARMACEUTICAL COMPANY LIMITED, priority 2022, published 2026)", "key": {"[1]": {"system": "Sheep Anti-Rat Fx1A Serum induced Heymann nephritis", "experiment": "In vivo efficacy assay of passive Heymann nephritis in rats", "conditions": "male SD rats, intragastric twice a day for 14 days, 5, 20 and 60 mpk; LNP023 60 mpk", "description": "Experimental objective: To investigate the ability of the compounds of the present disclosure to improve renal function of Sheep Anti-Rat Fx1A Serum induced Heymann nephritis in rats, including the evaluation of reducing proteinuria level and improving renal tissue damage.\nExperimental animals: Male SD rats, 7 to 10 weeks old, weighing between 200 to 300 g.\nUrine was collected from rats on D-2 before administration. On D1, the first day of the experiment, animals in the control group (group 1) were administered 5 mL/kg of Sheep Non-Immune serum via a single tail vein injection; animals in the model and administration groups (groups 2 to 6) were administered 5 mL/kg of Sheep Anti-Rat Fx1A Serum via a single tail vein injection.\nThe rats were treated by intragastric administration twice a day with an interval of 8 hours and a volume of 10 mL/kg. On D1, 1 hour before modeling, animals in groups 1 and 2 were administered blank vehicle 20% PEG400/10% Solutol/70% water; animals in group 3 were administered LNP023 (60 mpk); animals in groups 4 to 6 were administered different concentrations of synthetic compounds (5 mpk, 20 mpk, and 60 mpk); 8 hours after the first administration, each group was administered again with the same dose and volume as the first administration. From D2 to D14, animals in each group were administered different compounds or vehicles for 14 consecutive days (including the first day) according to the dose, volume, administration method, and frequency on D1.\nUrine collection: Urine samples were collected from rats on D-2 before administration, and 2 to 4 hours and 4 to 6 hours after the first administration on D4, D6, D8, D11, and D14 after administration, transferred to EP tubes and stored in a refrigerator at −80° C. to −60° C. for the detection of urine protein and creatinine in rats.\nKidney sample collection: All animals were euthanized with CO2 inhalation anesthesia on Day 15, and bilateral kidneys were collected. The left kidney was cut transversely, and the right kidney was cut longitudinally. Half of the transversely cut kidney (left side) and half of the longitudinally cut kidney (right side) were fixed in formalin (placed in the same EP tube).\n4. […] Urine total protein (uTP) in rats was detected without dilution; if exceeding the upper detection limit, it was 10-fold diluted (10 μL of sample+90 μL of saline (0.9% saline)) first (Decrease mode); if still exceeding the upper detection limit after 10-fold dilution, it was 100-fold diluted (2 μL of sample+198 μL of saline (0.9% saline)) (Increase mode). Data were read by the analytical instrument HITACHI LST008AS(P). • (2) Kidney pathological scoring: The degree of drug damage to rat kidneys (paraffin sections) was analyzed by HE staining. […]"}, "[2]": {"experiment": "Pharmacokinetic activity assay in mice", "type": "in vivo", "conditions": "IV 1 mg/kg, PO 10 mg/kg", "protocol": "Experimental objective: The test substance was administered to mice via single-dose intravenous and oral gavage routes, and its plasma concentration was measured to evaluate the pharmacokinetic characteristics in mice.\nExperimental animals: C57 mice or other available test mice\nIV dose: 1 mg/kg; vehicle: 0.5% DMSO or 0.5% MeOH-5% pharmaceutical grade polyethylene glycol-15 hydroxystearate-PBS\nSample collection: 0.03 mL of blood samples were collected from the saphenous vein in experimental animals by puncture at each time point, and the actual blood collection time was recorded. All blood samples were added to commercially available EDTA-K2 anticoagulant tubes with a specification of 1.5 mL (supplied by Jiangsu Kangjian Medical Apparatus Co., Ltd.). After collection, within half an hour, the blood sample was centrifuged at 4° C., 3000 g for 10 min to aspirate the supernatant plasma, which was put in dry ice immediately, and stored in a refrigerator at −80° C. for LCMS/MS analysis.\nBlood sampling points: 5 min, 15 min, 30 min, 1 hour, 2 hours, 4 hours, 6 hours, 8 hours, 12 hours, 20 hours, 24 hours.\nTest compounds: positive compound LNP023, the final product of Example 158, the final products (compound 159A and compound 159B) of Example 159, and compound 11 of Example 75."}, "[3]": {"system": "LPS-induced complement activation", "experiment": "In vivo efficacy assay of LPS-induced complement activation in mice", "conditions": "female C57BL/6J mice, LPS 100 μg intraperitoneal, PO", "protocol": "Experimental objective: To investigate the inhibitory effect of the compounds of the present disclosure on complement activation in mice induced by LPS stimulation.\nExperimental animals: Female C57BL/6J mice, 7 to 9 weeks old, weighing between 17 to 23 g.\nExperimental procedure: 100 μg of lipopolysaccharide (LPS) in Salmonella typhimurium (Sigma) dissolved in 100 μL of sterile PBS was intraperitoneally injected to induce complement activation in mice. Negative control animals were intraperitoneally injected 100 μL of sterile PBS and administered alone by tube feeding (PO). Positive control animals were intraperitoneally injected LPS and PO drug vehicles (0.5% (w/v) methyl cellulose and 0.5% (v/v) Tween 80).\nSample collection: 0.3 mL of blood samples were collected from the orbital venous plexus. All blood samples were added to commercially available EDTA-K2 anticoagulant tubes with a specification of 1.5 mL. After collection, within half an hour, the blood sample was centrifuged at 4° C., 3000 g for 10 min to aspirate the supernatant plasma, which was put in dry ice immediately, and stored in a refrigerator at −80° C. for Western blot analysis of downstream C3d protein levels after complement activation.\nSample analysis: Mouse plasma (5 μL)+Lysis buffer (27.5 μL)+Loading buffer (12.5 μL)+Reducing buffer (5 μL) were mixed well and incubated at 100° C. for 15 min with a loading volume of 5 μL/well, i.e., a loading volume of plasma of 0.5 μL per well.\nTest compounds: positive compound LNPO23, the final product of Example 158, the final products (compound 159A and compound 159B) of Example 159, and compound 11 of Example 75."}}, "data": [{"smiles": "CCCC1CCN(C(=O)c2c(OC)cc(C)c3[nH]ccc23)C(c2ccc(C(=O)O)cc2)C1", "note": "(single isomer, unassigned) [Compound 159B]", "values": [{"measurement": "performance in the kidney disease model through urine and kidney pathology analysis, compared with LNP023", "setting": "[1]", "value": "performed better"}, {"measurement": "clearance rate during in vivo metabolism, compared with LNP023", "setting": "[2]", "value": "comparable or superior"}, {"measurement": "half-life during in vivo metabolism, compared with LNP023", "setting": "[2]", "value": "comparable or superior"}, {"measurement": "inhibition of LPS-induced complement activation (plasma C3d levels), compared with LNP023", "setting": "[3]", "value": "superior or equivalent"}]}]}
